Laboratory results as given in US20100317703A1, “METHOD FOR INHIBITING BRASSININ OXIDASE” (UNIVERSITY OF SASKATCHEWAN, priority 2009, published 2010).

What was measured:
brassinin oxidase (BO) [1] = test: Inhibitory effect of paldoxins on purified BO (brassinin as substrate, HPLC-DAD); format: biochemical, Leptosphaeria maculans; conditions: for Inhibiton (%) of BO: brassinin 0.10 mM, purified BO, ± SD of four independent experiments
Experimental: For purification of brassinin oxidase, 600 mL of 48 h old liquid cultures prepared as described above, were incubated with 3-phenylindole (19, 0.05 mM final concentration in cultures to induce BO) for an additional 24 h and then gravity filtered to separate mycelia from culture broth. The mycelia was stored at −20° C. up to 72 h and used to obtain protein extracts containing BO activity.
(§1) The reaction mixture contained DEA (20 mM, pH 8.3), DTT (1 mM), 0.1% (v/v) Triton X-100, brassinin (1, 1.0 mM), phenazine (0.50 mM), and protein extract (50-100 μL) in a total volume of 500 μL. The reaction was carried out at 24° C. for 20 min. A control reaction was stopped by the addition of EtOAc (2 mL) at t=0. The product was extracted with EtOAc (2 mL) and concentrated to dryness. The extract was dissolved in CH3CN (200 μL) and analyzed by HPLC-DAD. The amounts of brassinin (1) and indole-3-carboxaldehyde (3) in the reaction assay were determined using calibration curves built with […]. One enzyme unit (U) is defined as the amount of the enzyme that catalyzes the conversion of one micromole of substrate per minute (μmol·min^−1=U).
The purification of BO was performed in four steps as previously described.^17 The purified enzyme was used for screening test compounds for inhibitory activity. To determine potential inhibitors of BO, inhibition experiments were carried out using brassinin (1, 0.10 mM final concentration) and test compounds (0.10 and 0.30 mM final concentrations). Standard deviation values for assays were determined from four independent experiments.
The inhibitory effects of test compounds on BO activity were tested at 0.10 mM and 0.30 mM using brassinin (1) as substrate (0.10 mM) and purified BO.

[2] = system: mycelial cultures of L. maculans; test: Antifungal activity: total protein content of cell-free extracts of treated mycelial cultures; format: cell-based, Leptosphaeria maculans; conditions: 24 h, control culture = 1.0
Experimental: (§2) Liquid cultures of L. maculans (virulent isolate BJ-125, IBCN collection, AAFC) were handled as described in the literature.^13 Fungal spores were subcultured on V8 agar under continuous light at 23±1° C.; after 15 days, fungal spores were collected aseptically and stored at −20° C.^14 Liquid cultures were initiated by inoculating minimal media (100 mL)^15 with fungal spores at 10^7/mL in Erlenmeyer flasks, followed by incubation on a shaker under constant light at 23±1° C.
(§3) For analysis of BO induction, 72 h old liquid cultures (20 mL) were co-incubated with test compounds (final concentrations in culture 0.10, 0.20, and 0.50 mM), and after an additional incubation for 24 h, the mycelia were separated from the culture broth by filtration.
(§4) Frozen mycelia (0.3-1.4 g) from L. maculans were suspended in ice-cold extraction buffer (1 mL) and ground (mortar) for 5 min. The extraction buffer consisted of diethanolamine(DEA, 25 mM, pH 8.3), 5% (v/v) glycerol, D,L-dithiothreitol (DTT, 1 mM), and 1/200 (v/v) protease inhibitor cocktail (P-8215, Sigma-Aldrich Canada). The homogenate was centrifuged at 4° C. for 30 min at 50000 g. The resulting supernatant was used for determination of specific activity of BO. Protein concentrations were determined as described by Bradford^16 using the Coomassie Brilliant Blue method with BSA as a standard.
(§5) Mycelial cultures of L. maculans were incubated with the test compounds (0.10, 0.20, and 0.50 mM) for 24 h to evaluate potential induction of BO activity. The cultures were filtered, the mycelia were extracted with extraction buffer, and the resulting cell-free extracts were analyzed for BO activity using brassinin (1) as substrate. The total protein content of each cell-free extract was determined using a calibration curve built using BSA.

[3] = system: brassinin oxidase (BO) activity in mycelial cultures of L. maculans; test: Inducer effect of paldoxins: BO activity in cell-free extracts of treated mycelial cultures; format: cell-based, Leptosphaeria maculans; conditions: 24 h, control culture = 1.0
Experimental: as §2, §3, §4, §1, §5

brassinin oxidase (BO) [4] = conditions: 0.30 mM; reference compound, cited from ref. 17; cited from earlier work
[5] = 0.10 mM added to mycelial cultures
[6] = 0.20 mM added to mycelial cultures
[7] = 0.50 mM added to mycelial cultures

SMILES	Inhibiton (%) of BO (brassinin oxidase (BO) [1]; test compound 0.10 mM) [%]	Inhibiton (%) of BO (brassinin oxidase (BO) [1]; test compound 0.30 mM) [%]	Relative Protein [2, 5]	Relative Protein [2, 6]	Relative Protein [2, 7]	Relative Specific Activity of BO [3, 5]	Relative Specific Activity of BO [3, 6]	Relative Specific Activity of BO [3, 7]	other results
CSC(=S)NCc1cc2ccccc2[nH]1 [Isobrassinin]	11 ± 5	23 ± 6							
c1ccc2cc(-c3cnsc3)ccc2c1 [I(g)]			0.26	0.17	0.16	2.6 ± 0.2	8.5 ± 0.1	16.3 ± 3.3	
c1ccc2[nH]c(-c3cscn3)nc2c1 [Thiabendazole, reference compound]	16 ± 3	25 ± 7	0.35	0.28	0.06	1.9 ± 0.2	4.1 ± 0.2	4.9 ± 0.3	BO inhibitory activity (brassinin oxidase (BO) [4]): ca. 25%
Fc1ccc2c(-c3nccs3)c[nH]c2c1 [I(b), 6-Fluorocamalexin]	29 ± 10	46	0.36	0.28	0.24	3.9 ± 0.1	4.0 ± 0.2	1.8 ± 0.3	
COc1ccc2[nH]cc(-c3nccs3)c2c1 [I(c), 5-Methoxycamalexin]	51 ± 4		0.28	0.24	0.13	1.7 ± 0.3	5.8 ± 0.6	1.6 ± 0.3	Inhibiton (%) of BO (brassinin oxidase (BO) [1]; test compound 0.30 mM, listed as 5-Methoxycamalexin I(c)): 72 ± 1%; Inhibiton (%) of BO (brassinin oxidase (BO) [1]; test compound 0.30 mM, listed as 5-methoxycamalexin I(c)): ca. 72%
COc1ccc2c(-c3nccs3)c[nH]c2c1 [I(d), 6-Methoxycamalexin]	41 ± 6		0.27	0.16	0.11	2.3 ± 0.1	3.7 ± 0.2	4.0 ± 0.1	Inhibiton (%) of BO (brassinin oxidase (BO) [1]; test compound 0.30 mM, listed as 6-Methoxycamalexin I(d)): 63 ± 5%; Inhibiton (%) of BO (brassinin oxidase (BO) [1]; test compound 0.30 mM, listed as 6-methoxycamalexin I(b)): ca. 63%
Fc1ccc2c(-c3ccccc3)c[nH]c2c1 [I(e), 6-Fluoro-3-phenylindole]	11 ± 4	17 ± 6							
c1ccc2c(-c3nccs3)c[nH]c2c1 [Camalexin]	30 ± 4	53 ± 4	0.28	0.24	0.10	4.5 ± 0.5	6.9±0.3	2.5 ± 0.1	Inhibiton (%) of BO (brassinin oxidase (BO) [1]; test compound 0.30 mM, listed as Camalexin I(h)): 53 ± 7%; Inhibiton (%) of BO (brassinin oxidase (BO) [1]; test compound 0.30 mM, listed as camalexin): 53%
CSC1=NCc2c([nH]c3ccccc23)S1 [Cyclobrassinin]	23 ± 6	37 ± 8							
Fc1ccc2[nH]cc(-c3nccs3)c2c1 [I(a), 5-Fluorocamalexin]	47 ± 5		0.30	0.23	0.19	5.0 ± 0.2	4.9 ± 0.4	7.9 ± 0.6	Inhibiton (%) of BO (brassinin oxidase (BO) [1]; test compound 0.30 mM, listed as 5-Fluorocamalexin I(a)): 63 ± 2%; Inhibiton (%) of BO (brassinin oxidase (BO) [1]; test compound 0.30 mM, listed as 5-fluorocamalexin I(a)): ca. 63%
CSC(=S)NCc1c[nH]c2ccccc12 [brassinin, Brassinin]									Km (brassinin oxidase (BO) [1]; under the enzyme assay conditions): 150 µM
